One data set concerns Nalm-6. The data set can be described thus: huCART19 proliferation in co-culture with RAD001. It counts as cell-based, human. Particulars: 4 day co-culture with Nalm-6; 0.0032 and 0.016 nM RAD001. The text has this:
A humanized, anti-human CD19 CAR (huCART19) lentiviral transfer vector was used to produce the genomic material packaged into VSVg pseudotyped lentiviral particles. The amino acid and nucleotide sequence of the humanized anti-human CD19 CAR (huCART19) is CAR 1, ID 104875 described in PCT publication, WO2014/153270, filed Mar. 15, 2014, and is designated SEQ ID NOs. 85 and 31 therein.
Lentiviral transfer vector DNA is mixed with the three packaging components VSVg env, gag/pol and rev in combination with lipofectamine reagent to transfect Lenti-X 293T cells. Medium is changed after 24 h and 30 h thereafter, the virus-containing media is collected, filtered and stored at −80° C. CARTs are generated by transduction of fresh or frozen naïve T cells obtained by negative magnetic selection of healthy donor blood or leukopak. […] The percentage of cells transduced (expressing the CARs on the cell surface) and the level of CAR expression (relative fluorescence intensity, Geo Mean) are determined by flow cytometric analysis between days 7 and 9. […]
To evaluate the functionality of CARTs, the T cells are thawed and counted, and viability is assessed by Cellometer. […]
For measuring the proliferation of CARTs, T cells are cultured with target cells at a ratio of 1:1. […] The number of T cells is assessed by flow cytometry using counting beads as reference.

For another data set, the system named is NALM6-luc tumors. The data set can be described thus: NALM6-luc tumor growth with daily RAD001 dosing. It counts as in vivo, NSG mice. Particulars: daily oral RAD001 alone, 0.3, 1, 3, 10 mg/kg. The protocol:
The NALM6 human acute lymphoblastic leukemia (ALL) cell line was developed from the peripheral blood of a patient with relapsed ALL. The cells were then tagged with firefly luciferase. These suspension cells grow in RPMI supplemented with 10% heat inactivated fetal bovine serum.
6 week old NSG (NOD.Cg-Prkdc^scidIl2rg^tm1Wjl/SzJ) mice were received from the Jackson Laboratory (stock number 005557).
(§1) NALM6-luc cells were grown and expanded in vitro in RPMI supplemented with 10% heat inactivated fetal bovine serum. The cells were then transferred to a 15 ml conical tube and washed twice with cold sterile PBS. NALM6-luc cells were then counted and resuspended at a concentration of 10×10^6 cells per milliliter of PBS. The cells were placed on ice and immediately (within one hour) implanted in the mice. NALM6-luc cells were injected intravenously via the tail vein in a 100 μl volume, for a total of 1×10^6 cells per mouse.
(§2) A concentrated micro-emulsion of 50 mg equal to 1 mg RAD001 was formulated and then resuspended in D5W (dextrose 5% in water) at the time of dosing. Mice were orally dosed daily (via oral gavage) with 200 μl of the desired doses of RAD001.

A short description of data set [1]: RAD001 pharmacokinetics in blood of tumor bearing mice. It counts as in vivo, NSG mice. The procedure:
as §2
Mice were dosed daily with RAD001 starting 7 days post tumor implantation. Dosing groups were as follows: 0.3 mg/kg, 1 mg/kg, 3 mg/kg, and 10 mg/kg. Mice were bled on days 0 and 14 following the first and last dose of RAD001, at the following time points for PK analysis: 15 minutes, 30 minutes, 1 hour, 2 hours, 4 hours, 8 hours, 12 hours, and 24 hours.

A short description of data set [2]: in vivo proliferation of huCAR19 CAR T cells with RAD001. Particulars: NALM6-luc NSG mice, daily oral RAD001, lowest doses (0.003 mg/kg). The protocol:
as §1
Mice were administered 5×10^6 CAR T cells 7 days after tumor implantation. Cells were partially thawed in a 37 degree Celsius water bath and then completely thawed by the addition of 1 ml of cold sterile PBS to the tube containing the cells. The thawed cells were transferred to a 15 ml falcon tube and adjusted to a final volume of 10 mls with PBS. The cells were washed twice at 1000 rpm for 10 minutes each time and then counted on a hemocytometer. T cells were then resuspended at a concentration of 50×10^6 CAR T cells per ml of cold PBS and kept on ice until the mice were dosed. […]
Based on these doses, huCAR19 CAR T cells were dosed with and without RAD001 to determine the proliferative ability of these cells. […] Mice were monitored via FACS for T cell expansion.

The next data set deals with primary AML blasts. The data set can be described thus: chemotherapy followed by CLL1-CART cells in primary AML xenografts. It counts as in vivo, NSG-S mice. Particulars: two weeks after cytarabine 60 mg/kg i.p. daily days 35-39.

Each structure is given as a SMILES string. Entries after “also recorded” stand apart in the source; their conditions may differ.

Protocol for primary AML blasts: NSG mice that are additionally transgenic for stem cell factor, GM-CSF and IL-3 (NSG-S) were injected with primary AML blasts (3×10^6 via tail vain injection, day 0). After 4-6 weeks, peripheral blood (PB) was collected to confirm engraftment, which was defined as the presence of >1% circulating leukemic cells (live human CD45dim cells). AML xenografts were then treated with cytarabine (Ara-C, 60 mg/kg by intra-peritoneal injection, daily between days 35-39). Peripheral blood counts were monitored and then these xenografts were randomized to receive CLL1 directed CART cells or control untransduced T cells (1×10^5 I.V.) on day 55. Following that, serial retro-orbital bleedings were performed and absolute leukemic blast count was calculated as a measure of disease burden and the xenografts were followed up for survival.

For the compound `CO[C@H]1C[C@@H]2CC[C@@H](C)[C@@](O)(O2)C(=O)C(=O)N2CCCC[C@H]2C(=O)O[C@H]([C@H](C)C[C@@H]2CC[C@@H](OCCO)[C@H](OC)C2)CC(=O)[C@H](C)/C=C(\C)[C@@H](O)[C@@H](OC)C(=O)[C@H](C)C[C@H](C)/C=C/C=C/C=C/1C` [RAD001, (1R,9S,12S,15R,16E,18R,19R,21R,23S,24E,26E,28E,30S,32S,35R)-1,18-dihydroxy-12-{(1R)-2-[(1S,3R,4R)-4-(2-hydroxyethoxy)-3-methoxycyclohexyl]-1-methylethyl}-19,30-dimethoxy-15,17,21,23,29,35-hexamethyl-11,36-dioxa-4-aza-tricyclo[30.3.1.04,9]hexatriaconta-16,24,26,28-tetraene-2,3,10,14,20-pentaone], in the data set with Nalm-6, the “proliferation of huCART19 with RAD001 versus without” value is reported as “proliferation was higher than observed without the addition of RAD001”. Further, in the data set on NALM6-luc tumors, the “growth of NALM6-luc tumors” value is “did not have an impact”. The “concentration of RAD001 (blood)” value in data set [1] (24 hours after the final dose) is “above 10 nM”. Further, in data set [1] (NSG, mouse, blood, oral, 24 hours after dosing, lowest dose 0.3 mg/kg, day 0 and day 14, read-out: RAD001 concentrations in the blood), the concentration at 24 h was more than 10 nM. The “stability in the blood of tumor bearing mice” value in data set [1] (daily oral dosing, day 0 and day 14 PK) is recorded as “fairly stable”. The “proliferation of huCAR19 CAR T cells in vivo” value in data set [2] is “enhanced proliferation; also recorded: enhancement in CAR T cell proliferation”.

`Nc1ccn([C@@H]2O[C@H](CO)[C@@H](O)[C@@H]2O)c(=O)n1` [cytarabine]: the “mean fluorescence intensity (MFI) of CLL1 in leukemic cells (live huCD45dim)” value in the data set with primary AML blasts was “significant increase”.
